From US12570613B2, “Imidazoquinoline or benzoindazolone compound and intermediate for preparing same” (LMITO THERAPEUTICS INC., priority 2020, dated 2026)

Target: NQO1 protein (Homo sapiens, UniProt P15559)
Experiment: In vitro NQO1 enzyme activity assay (cytochrome C reduction, absorbance at 550 nm)
Type: biochemical
Conditions: NQO1 2 ng
Method: In order to evaluate the activity of the synthesized compound in NQO1, the experiments were performed as follows:
The synthesized compound was dissolved in DMSO to make a 10 mM stock solution, which was further diluted with DMSO to 250 μM so as to prepare a working solution. For experimental groups, the working solution of the compound was added to an enzyme reaction solution in which 50 μL of 1.54 mM Cytochrome C solution was added to 900 μL of 50 mM Tris-HCl (pH7.5) containing 0.14% BSA. For negative control groups, DMSO not containing the compound of the invention was added to the enzyme reaction solution as above. For each experimental and control group, 20 μL of 100 ng/mL NQO1 protein was added, and then 10 μL of 20 mM NADH was added to bring up the total volume to 1 mL. The change of absorbance was measured at 550 nm for 10 minutes using 1 mL cuvette. The kinetics of reaction was measured by the increase of absorbance as the cytochrome C was reduced at 550 nm over 10 minutes. The activity of NQO1 was measured by the amount of cytochrome C that is being reduced (nmol cytochrome C that was reduced/min/ug NQO1 protein). • Absorption coefficient of Cytochrome C: 21.1 (μmol/mL)^−1cm^−1 • BSA: Bovine Serum Albumin • […]: Tris(hydroxymethyl)aminomethane hydrochloride (buffer solution) • Equipment=Cary 100 UV-Vis Spectrophotometer • The results are shown in Tables 1 to 8.

Chain of NQO1 protein (P15559 whole entry, species assumed): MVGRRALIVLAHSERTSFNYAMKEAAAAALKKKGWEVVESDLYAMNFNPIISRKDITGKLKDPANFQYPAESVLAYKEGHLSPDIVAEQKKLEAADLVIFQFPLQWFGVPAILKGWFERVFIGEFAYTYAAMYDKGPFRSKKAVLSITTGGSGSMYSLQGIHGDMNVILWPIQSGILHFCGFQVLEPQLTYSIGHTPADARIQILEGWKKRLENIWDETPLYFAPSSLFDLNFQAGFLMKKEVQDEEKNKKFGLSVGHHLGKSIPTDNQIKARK

Compound	NQO1 activity assay Cytochrome C reduced/min/μg NQO1 protein (50 nM Compound (Table 8))	further results
Cc1c2c(nn1S(=O)(=O)c1ccc(F)c(F)c1)-c1ccccc1C(=O)C2=O [Compound 58, 2-(3,4-Difluorophenylsulfonyl)-3-methyl-2H-benzo[g]indazol-4,5-dione]	1913 nmol cytochrome C that was reduced/min/ug NQO1 protein	–
Cc1c2c(nn1S(=O)(=O)c1ccc(F)cc1F)-c1ccccc1C(=O)C2=O [Compound 59, 2-(2,4-Difluorophenylsulfonyl)-3-methyl-2H-benzo[g]indazol-4,5-dione]	1923 nmol cytochrome C that was reduced/min/ug NQO1 protein	–
Cc1c2c(nn1S(=O)(=O)c1cccc3cccnc13)-c1ccccc1C(=O)C2=O [Compound 60, 3-Methyl-2-(quinolin-8-ylsulfonyl)-2H-benzo[g]indazol-4,5-dione]	2692 nmol cytochrome C that was reduced/min/ug NQO1 protein	–
Cc1c2c(nn1S(=O)(=O)c1nccn1C)-c1ccccc1C(=O)C2=O [Compound 61, 3-Methyl-2-(1-methyl-1H-imidazol-2-ylsulfonyl)-2H-benzo[g]indazol-4,5-dione]	2289 nmol cytochrome C that was reduced/min/ug NQO1 protein	–
Cc1c2c(nn1S(=O)(=O)N1CCOCC1)-c1ccccc1C(=O)C2=O [Compound 62, 3-Methyl-2-(morpholinosulfonyl)-2H-benzo[g]indazol-4,5-dione]	1916 nmol cytochrome C that was reduced/min/ug NQO1 protein	–
Cc1nn(Cc2ccccc2)c2c1C(=O)C(=O)c1ccccc1-2 [Compound 63, 1-Benzyl-3-methyl-1H-benzo[g]indazol-4,5-dione]	–	NQO1 activity assay Cytochrome C reduced/min/μg NQO1 protein (50 nM Compound (Table 2)): 1567 nmol cytochrome C that was reduced/min/ug NQO1 protein
Cc1nn(CCc2ccccc2)c2c1C(=O)C(=O)c1ccccc1-2 [Compound 64, 3-Methyl-1-phenethyl-1H-benzo[g]indazol-4,5-dione]	–	NQO1 activity assay Cytochrome C reduced/min/μg NQO1 protein (50 nM Compound (Table 2)): 2081 nmol cytochrome C that was reduced/min/ug NQO1 protein
Cc1nn(CCc2ccc(F)cc2)c2c1C(=O)C(=O)c1ccccc1-2 [Compound 65, 1-(4-Fluorophenethyl)-3-methyl-1H-benzo[g]indazol-4,5-dione]	–	NQO1 activity assay Cytochrome C reduced/min/μg NQO1 protein (50 nM Compound (Table 4)): 3714 nmol cytochrome C that was reduced/min/ug NQO1 protein
Cc1c2c(nn1CCc1ccc(F)cc1)-c1ccccc1C(=O)C2=O [Compound 66, 2-(4-Fluorophenethyl)-3-methyl-2H-benzo[g]indazol-4,5-dione]	–	NQO1 activity assay Cytochrome C reduced/min/μg NQO1 protein (50 nM Compound (Table 4)): 3001 nmol cytochrome C that was reduced/min/ug NQO1 protein
Cc1nn(CCCc2ccccc2)c2c1C(=O)C(=O)c1ccccc1-2 [Compound 67, 3-Methyl-1-(3-phenylpropyl)-1H-benzo[g]indazol-4,5-dione]	1836 nmol cytochrome C that was reduced/min/ug NQO1 protein	–
Cc1ccc(CCn2nc(C)c3c2-c2ccccc2C(=O)C3=O)cc1 [Compound 68, 3-Methyl-1-(4-methylphenethyl)-1H-benzo[g]indazol-4,5-dione]	1865 nmol cytochrome C that was reduced/min/ug NQO1 protein	–
Cc1ccc(CCn2nc3c(c2C)C(=O)C(=O)c2ccccc2-3)cc1 [Compound 69, 3-Methyl-2-(4-methylphenethyl)-2H-benzo[g]indazol-4,5-dione]	2460 nmol cytochrome C that was reduced/min/ug NQO1 protein	–
Cc1c2c(nn1CCc1ccccc1F)-c1ccccc1C(=O)C2=O [Compound 70, 2-(2-Fluorophenethyl)-3-methyl-2H-benzo[g]indazol-4,5-dione]	1611 nmol cytochrome C that was reduced/min/ug NQO1 protein	–
